From ChEMBL document CHEMBL1201862, “PubChem BioAssay data set” (2004)
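48-hour exposure; five concentrations; linearly interpolated endpoints. GI50 is the concentration that inhibits growth by half.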 Activity calls are given as the source filed them. Rule as the data show it: active = GI50 up to about 1.1 µM and inactive = higher.

What was measured:
Test in all cases: NCI anticancer screen, dose series, 48 h
786-0 = tested on: 786-0
A498 = tested on: A498
A549 = tested on: A549
ACHN = tested on: ACHN
BT-549 = tested on: BT-549
CAKI-1 = tested on: CAKI-1
COLO 205 = tested on: COLO 205
DU-145 = tested on: DU-145
EKVX = tested on: EKVX
HCT-116 = tested on: HCT-116
HCT-15 = tested on: HCT-15
HL-60 = tested on: HL-60
HOP-62 = tested on: HOP-62
HOP-92 = tested on: HOP-92
HT-29 = tested on: HT-29
Hs-578T = tested on: Hs-578T
IGROV-1 = tested on: IGROV-1
K562 = tested on: K562
KM12 = tested on: KM12
LOX IMVI = tested on: LOX IMVI
M14 = tested on: M14
MCF7 = tested on: MCF7
MDA-MB-231 = tested on: MDA-MB-231
MDA-MB-435 = tested on: MDA-MB-435
MDA-N = tested on: MDA-N
MOLT-4 = tested on: MOLT-4
Malme-3M = tested on: Malme-3M
NCI-H226 = tested on: NCI-H226
NCI-H23 = tested on: NCI-H23
NCI-H460 = tested on: NCI-H460
NCI-H522 = tested on: NCI-H522
NCI/ADR-RES = tested on: NCI/ADR-RES
OVCAR-3 = tested on: OVCAR-3
OVCAR-4 = tested on: OVCAR-4
OVCAR-5 = tested on: OVCAR-5
OVCAR-8 = tested on: OVCAR-8
PC-3 = tested on: PC-3
RPMI-8226 = tested on: RPMI-8226
SF-268 = tested on: SF-268
SF-295 = tested on: SF-295
SF-539 = tested on: SF-539
SK-MEL-28 = tested on: SK-MEL-28
SK-MEL-2 = tested on: SK-MEL-2
SK-MEL-5 = tested on: SK-MEL-5
SK-OV-3 = tested on: SK-OV-3
SN12C = tested on: SN12C
SNB-19 = tested on: SNB-19
SR = tested on: SR
SW-620 = tested on: SW-620
T47D = tested on: T47D
TK-10 = tested on: TK-10
U-251 = tested on: U-251
UACC-257 = tested on: UACC-257
UACC-62 = tested on: UACC-62
UO-31 = tested on: UO-31
CCRF-CEM = tested on: CCRF-CEM
RXF 393 = tested on: RXF 393
SNB-75 = tested on: SNB-75

CN(C)Cc1ccc(-c2cc3onc(-c4ccccc4)c3c(=O)n2C)cc1
GI50 (786-0): 17.3 µM (inactive)
GI50 (A498): 22.6 µM (inactive)
GI50 (A549): 16.4 µM (inactive)
GI50 (ACHN): 67.5 µM (inactive)
GI50 (BT-549): 38.5 µM (inactive)
GI50 (CAKI-1): 85.3 µM (inactive)
GI50 (COLO 205): 20 µM (inactive)
GI50 (DU-145): 28.8 µM (inactive)
GI50 (EKVX): > 100 µM (inactive)
GI50 (HCT-116): 14.4 µM (inactive)
GI50 (HCT-15): 20.5 µM
GI50 (HL-60): 0.711 µM (active)
GI50 (HOP-62): 20.7 µM (inactive)
GI50 (HOP-92): 7.87 µM (inactive)
GI50 (HT-29): 11 µM (inactive)
GI50 (Hs-578T): 19.6 µM (inactive)
GI50 (IGROV-1): 36 µM (inactive)
GI50 (K562): 17.7 µM (inactive)
GI50 (KM12): 19.5 µM (inactive)
GI50 (LOX IMVI): 17.9 µM (inactive)
GI50 (M14): 15.1 µM (inactive)
GI50 (MCF7): 41.2 µM (inactive)
GI50 (MDA-MB-231): 28.5 µM (inactive)
GI50 (MDA-MB-435): 19.2 µM (inactive)
GI50 (MDA-N): 17.6 µM (inactive)
GI50 (MOLT-4): 17.8 µM (inactive)
GI50 (Malme-3M): 29 µM (inactive)
GI50 (NCI-H226): > 100 µM (inactive)
GI50 (NCI-H23): 29.6 µM (inactive)
GI50 (NCI-H460): 17.5 µM (inactive)
GI50 (NCI-H522): 18.7 µM (inactive)
GI50 (NCI/ADR-RES): 41.5 µM (inactive)
GI50 (OVCAR-3): 37.4 µM (inactive)
GI50 (OVCAR-4): 84.9 µM (inactive)
GI50 (OVCAR-5): 40.6 µM (inactive)
GI50 (OVCAR-8): 47.5 µM (inactive)
GI50 (PC-3): 39.8 µM (inactive)
GI50 (RPMI-8226): 19.4 µM (inactive)
GI50 (SF-268): 31.2 µM (inactive)
GI50 (SF-295): 22.9 µM (inactive)
GI50 (SF-539): 20.3 µM (inactive)
GI50 (SK-MEL-28): 18.9 µM (inactive)
GI50 (SK-MEL-2): 27.5 µM (inactive)
GI50 (SK-MEL-5): 17.9 µM (inactive)
GI50 (SK-OV-3): 48.8 µM (inactive)
GI50 (SN12C): 55.6 µM (inactive)
GI50 (SNB-19): 57.8 µM (inactive)
GI50 (SR): 11.7 µM (inactive)
GI50 (SW-620): 21.3 µM (inactive)
GI50 (T47D): 20 µM (inactive)
GI50 (TK-10): 24.1 µM (inactive)
GI50 (U-251): 22 µM (inactive)
GI50 (UACC-257): 18.3 µM (inactive)
GI50 (UACC-62): 25.9 µM (inactive)
GI50 (UO-31): 11.6 µM (inactive)

CN(Cc1cc(C(C)(C)C)cc(Br)c1O)Cc1cc(C(C)(C)C)cc(Br)c1O
GI50 (786-0): 3.69 µM (inactive)
GI50 (A498): 2.75 µM (inactive)
GI50 (A549): 3.52 µM (inactive)
GI50 (ACHN): 2.94 µM (inactive)
GI50 (BT-549): 4 µM (inactive)
GI50 (CAKI-1): 3.4 µM (inactive)
GI50 (CCRF-CEM): 2.7 µM (inactive)
GI50 (COLO 205): 12.2 µM (inactive)
GI50 (DU-145): 6.1 µM (inactive)
GI50 (EKVX): 3.83 µM (inactive)
GI50 (HCT-116): 3.05 µM (inactive)
GI50 (HCT-15): 3.12 µM
GI50 (HL-60): 4.2 µM (inactive)
GI50 (HOP-62): 4.08 µM (inactive)
GI50 (HOP-92): 4.23 µM (inactive)
GI50 (HT-29): 4.48 µM (inactive)
GI50 (Hs-578T): 2.65 µM (inactive)
GI50 (IGROV-1): 1.72 µM (inactive)
GI50 (K562): 3.13 µM (inactive)
GI50 (KM12): 2.52 µM (inactive)
GI50 (LOX IMVI): 3.77 µM (inactive)
GI50 (M14): 4.28 µM (inactive)
GI50 (MCF7): 1.56 µM (inactive)
GI50 (MDA-MB-231): 2.15 µM (inactive)
GI50 (MDA-MB-435): 4.43 µM (inactive)
GI50 (MDA-N): 4.5 µM (inactive)
GI50 (MOLT-4): 3.21 µM (inactive)
GI50 (Malme-3M): 4.58 µM (inactive)
GI50 (NCI-H226): 4.18 µM (inactive)
GI50 (NCI-H23): 3.15 µM (inactive)
GI50 (NCI-H460): 1.87 µM (inactive)
GI50 (NCI-H522): 2.84 µM (inactive)
GI50 (NCI/ADR-RES): 3.03 µM (inactive)
GI50 (OVCAR-3): 2.15 µM (inactive)
GI50 (OVCAR-4): 5.08 µM (inactive)
GI50 (OVCAR-5): 5.52 µM (inactive)
GI50 (OVCAR-8): 4.33 µM (inactive)
GI50 (PC-3): 2.96 µM (inactive)
GI50 (RPMI-8226): 2.01 µM (inactive)
GI50 (RXF 393): 2.21 µM (inactive)
GI50 (SF-268): 3.66 µM (inactive)
GI50 (SF-295): 4.02 µM (inactive)
GI50 (SF-539): 2.74 µM (inactive)
GI50 (SK-MEL-28): 5.14 µM (inactive)
GI50 (SK-MEL-2): 2.02 µM (inactive)
GI50 (SK-MEL-5): 2.76 µM (inactive)
GI50 (SK-OV-3): 9.51 µM (inactive)
GI50 (SN12C): 4.19 µM (inactive)
GI50 (SNB-19): 6.61 µM (inactive)
GI50 (SNB-75): 3.66 µM (inactive)
GI50 (SR): 2.86 µM (inactive)
GI50 (SW-620): 3.48 µM (inactive)
GI50 (T47D): 3.5 µM (inactive)
GI50 (TK-10): 2.17 µM (inactive)
GI50 (U-251): 2.65 µM (inactive)
GI50 (UACC-257): 2.48 µM (inactive)
GI50 (UACC-62): 3.13 µM (inactive)
GI50 (UO-31): 3.61 µM (inactive)
